# Results taken from article PMC5394417, “Investigating the molecular mechanism of positive and negative allosteric modulators in the calcium-sensing receptor dimer” (Scientific Reports, 2017).
# pEC50: −log10 of the molar value. Several values for one entry are separate records, joined by “and”; a condition that tells them apart may be missing. Equal entries are not always repeated.
# Target: T1, HA-S170A CaSR mutant (ATD mutant) (Rattus norvegicus, UniProt P48442, S170A)
# T1 construct: mGluR5 signal peptide (N); expressed in transfected cells; host or cells: HEK293T
# T1 sequence (P48442 20-1079 S170A): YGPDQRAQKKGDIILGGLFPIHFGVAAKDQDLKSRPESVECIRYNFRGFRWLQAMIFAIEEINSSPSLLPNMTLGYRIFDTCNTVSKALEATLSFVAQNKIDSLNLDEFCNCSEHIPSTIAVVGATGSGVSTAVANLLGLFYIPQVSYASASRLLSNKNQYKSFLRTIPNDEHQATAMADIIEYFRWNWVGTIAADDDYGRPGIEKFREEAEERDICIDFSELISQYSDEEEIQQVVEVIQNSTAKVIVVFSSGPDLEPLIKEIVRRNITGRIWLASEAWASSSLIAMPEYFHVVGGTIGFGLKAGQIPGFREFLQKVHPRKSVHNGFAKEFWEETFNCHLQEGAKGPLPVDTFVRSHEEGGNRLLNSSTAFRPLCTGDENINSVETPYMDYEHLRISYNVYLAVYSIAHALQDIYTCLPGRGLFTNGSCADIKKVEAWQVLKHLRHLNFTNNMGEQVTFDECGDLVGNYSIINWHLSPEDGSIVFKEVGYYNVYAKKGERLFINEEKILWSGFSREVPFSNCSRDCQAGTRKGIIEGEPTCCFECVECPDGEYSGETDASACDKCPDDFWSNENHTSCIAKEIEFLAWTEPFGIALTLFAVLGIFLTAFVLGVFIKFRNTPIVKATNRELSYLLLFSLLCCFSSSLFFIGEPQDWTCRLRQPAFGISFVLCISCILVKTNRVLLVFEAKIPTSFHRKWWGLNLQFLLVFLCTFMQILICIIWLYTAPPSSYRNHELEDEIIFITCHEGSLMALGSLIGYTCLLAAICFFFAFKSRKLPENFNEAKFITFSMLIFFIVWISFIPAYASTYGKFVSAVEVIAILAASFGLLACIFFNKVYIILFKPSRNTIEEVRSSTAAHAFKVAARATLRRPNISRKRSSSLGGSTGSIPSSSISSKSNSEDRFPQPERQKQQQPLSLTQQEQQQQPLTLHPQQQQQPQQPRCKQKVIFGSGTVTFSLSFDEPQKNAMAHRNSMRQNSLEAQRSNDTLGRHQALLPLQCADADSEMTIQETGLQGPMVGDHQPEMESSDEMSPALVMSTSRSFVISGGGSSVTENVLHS
# Experiment: IP-One assay, HEK293T transiently transfected
# Format: cell-based
# Description: Human embryonic kidney (HEK) 293T cells were cultured in DMEM supplemented with 10% dFBS and 1% P/S at 37 °C and 5% CO2. 48 h prior to assay, transient transfection was performed using Lipofectamine 2000 as the transfection reagent. White opaque 96-well culture plates (PerkinElmer, Waltham, MA, USA) were used for the ELISA and the TR-FRET dimerization assay, while clear tissue culture treated 96-well plates (Corning, Corning, NY, USA) were used for the IP-One assay. Both plate types were coated with poly-D-lysine before addition of cells and transfection mix. 0.25 μl/well of Lipofectamine 2000 were diluted in 25 μl/well of Opti-MEM and incubated at room temperature (RT) for 5 min. 0.03 μg/well of DNA was diluted in 25 μl/well of Opti-MEM, and subsequently mixed with the Lipofectamine 2000 dilution and incubated 20 min at RT before addition to the plates. Cell suspensions of 170.000 HEK293T cells/mL were prepared in complete growth medium and 100 μl/well (17.000 cells/well) was added to the plates, which were incubated for 48 h at 37 °C and 5% CO2 before performing assays.
# Functional activity was measured using the IP-One assay, which is an IP1 accumulation assay. For agonist testing, ligands were prepared in final concentrations in ligand buffer (HBSS, 20 mM HEPES, pH 7.4 supplemented with 20 mM LiCl). Cells were washed once with 100 μl/well of assay buffer (HBSS, 20 mM HEPES, pH 7.4) and 50 μl/well of agonist solution was added after which plates were incubated at 37 °C for 30 min. Subsequently, ligand solutions were removed and cells were washed with 100 μl/well of assay buffer. Cell lysis was performed by addition of 30 μl/well of IP-One Conjugate & Lysis Buffer (Cisbio Bioassays, Codolet, France) and plates were incubated at RT for 30 min. Afterwards, 30 μl/well of assay buffer was added to dilute the cell lysate. 10 μl/well of cell lysate was transferred from the 96-well plate to a 384-well Optiplate and 10 μl/well of detection solution (Assay buffer + 2.5% of anti-IP1 antibody cryptate Terbium conjugate + 2.5% IP1-d2 conjugate (Cisbio Bioassays, Codolet, France)) was also added. The 384-well plate was incubated for 1 h at RT in dark before being measured on an EnVision plate reader (PerkinElmer, Waltham, MA, USA). Upon excitation at 340 nm, emission at 615 nm and 665 nm was measured, and the FRET ratio (665 nm/615 nm) was converted to IP1 concentrations by interpolating values from an IP1 standard curve generated from a provided IP1 calibrator (Cisbio Bioassays, Codolet, France). When testing allosteric modulators, cells were pre-incubated for 30 min at 37 °C with 50 μl/well of ligand buffer supplemented with allosteric modulator and a final concentration of 1% DMSO. Afterwards, the buffer solution was removed and 50 μl/well of agonist solution in ligand buffer supplemented with allosteric modulator and a final concentration of 1% DMSO was added. Plates were incubated for 30 min at 37 °C followed by one wash in 100 μl/well of assay buffer. Cell lysis and detection was performed as described above.
"potentiation of Ca^2+-mediated response (S170A co-expressed with pEGFPN1, 23 mM Ca^2+, 0.05, 0.1 and 1 μM NPS R-568)","pEC50 (HA-S170A, Ca^2+ alone)","Max ± S.E.M. (HA-S170A, normalized to maximum response of WT CaSR, at highest tested Ca^2+ concentration)",Structure (SMILES)
concentration-dependent potentiation,–,–,"COc1cccc([C@@H](C)NCCCc2ccccc2Cl)c1.Cl [NPS R-568, NPS R-568 hydrochloride]"
–,< 1.35,17% and 17 ± 0.7%,[Ca+2] [Ca^2+]
